According to US12492200B2, “NLRP3 modulators” (INNATE TUMOR IMMUNITY, INC., priority 2020, dated 2025):

Molecular target: T1, NLRP3 (Homo sapiens, UniProt Q96P20)
T1 construct: host or cells: PMA-differentiated THP-1 cells
Assay: Measurement of IL-1β production (NLRP3 hIL1β EC50), PMA-differentiated THP-1 cells
Format: cell-based
Conditions: human IL-1β production; assayed using one or more of the described procedures
Procedure: THP-1 cells were purchased from the American Type Culture Collection and sub-cultured according to instructions from the supplier. Prior to experiments, cells were cultured in RPMI 1640 containing 10% heat inactivated FBS, penicillin (100 units/ml) and streptomycin (100 μg/ml), and maintained in log phase prior to experimental setup. Prior to the experiment THIP-1 were treated with PMA (Phorbol 12-myristate 13-acetate) (10 μg/ml) for 24 hours. The day of the experiment the media was removed and attaching cells were treated with trypsin for 2 minutes, cells were then collected, washed with PBS (phosphate buffer saline), spin down, resuspended in 2% heat inactivated FBS with RPMI at a concentration of 1×10^6 cells/ml, and 100 μl was plated in a 96 well plate. Compounds were dissolved in dimethyl sulfoxide (DMSO) and added to the culture medium to achieve desired concentration (e.g. 100, 30, 10, 3, 1, 0.3 or 0.1 μM). Cells were incubated with compounds for 4 hours. Cell free supernatant was collected and the production of IL-1β was evaluated by ELISA. A vehicle only control was run concurrently with each experiment. Final DMSO concentration was 1%.
THP-1 cells were purchased from the American Type Culture Collection and sub-cultured according to instructions from the supplier. Prior to experiments, cells were cultured in RPMI 1640 containing 10% heat inactivated FBS, penicillin (100 units/ml), streptomycin (100 μg/ml), HEPES (10 mM) and sodium pyruvate (1 mM) and maintained in log phase prior to experimental setup. Prior to the experiment, THP-1 cells were treated with PMA (Phorbol 12-myristate 13-acetate) (20 μg/ml) overnight. The day of the experiment, the media was removed and attached cells were treated with trypsin for 2 minutes, cells were then collected, washed with PBS (phosphate buffer saline), pelleted by centrifugation and resuspended in 2% heat inactivated FBS with RPMI at a concentration of 50,000 cells/well in a 384 well plate. Cell free supernatant was collected and the production of IL-1β was evaluated by ELISA. Compounds were dissolved in dimethyl sulfoxide (DMSO) and added to the culture medium to achieve desired concentration (e.g. 100, 30, 10, 3, 1, 0.3 or 0.1 μM). Cells were incubated with compounds for 2 hours. A vehicle only control was run concurrently with each experiment. Final DMSO concentration was 1%.
Serial dilutions of compounds in DMSO were added to low volume 384 well plates at 100 nl/well using an ECHO 550 acoustic dispenser (Labcyte) to achieve final starting concentration of 10 μM in assay.
THP-1 cells in RPMI (Gibco, 11875) media with 10% FBS at a density of 1×10^6 cell/ml in a T175 flask were treated with a final concentration of phorbol 12-myristate 13-acetate (PMA) (Sigma,P1585) of 50 ng/ml overnight at 37° C. at 5% CO2 for differentiation. Cells were harvested the next day after rinsing well with dPBS using 0.5% trypsin. A cell solution was prepared of 1×10^6 cells/ml for 50,000 cells in 50 μl/well in RPMI media with 2% FBS. Cells were plated using a multichannel pipette onto the compound dilutions in Greiner, 384 well, black clear bottom tissue culture treated plates (781090). The plates were incubated in 37° C. incubator at 5% CO2 for 2 hours.
After the 2 hour incubation, the cell plates were spun in the centrifuge for 5 minutes at 1200 rpm. Using the Felix (CyBio), 8 μl of the supernatant was transferred to 384 well, low volume, white proxy plates. (Perkin Elmer, 6008230). A human IL1beta hTRF kit was used to analyze the supernatant (CISBIO, 62HIL1BPEG). The kit instructions were followed for preparing the IL1Beta standard curve and then the antibodies from the kit were diluted 1:40 rather than 1:20 as kit instructed. Once combined, the antibodies were added across the plates, 5 μl/well. The plates were sealed and incubated at 4° C. overnight. The plates were then read on the Perkin Elmer EnVision at 665/615 nm using the hTRF laser.

T1 sequence (Q96P20 whole entry): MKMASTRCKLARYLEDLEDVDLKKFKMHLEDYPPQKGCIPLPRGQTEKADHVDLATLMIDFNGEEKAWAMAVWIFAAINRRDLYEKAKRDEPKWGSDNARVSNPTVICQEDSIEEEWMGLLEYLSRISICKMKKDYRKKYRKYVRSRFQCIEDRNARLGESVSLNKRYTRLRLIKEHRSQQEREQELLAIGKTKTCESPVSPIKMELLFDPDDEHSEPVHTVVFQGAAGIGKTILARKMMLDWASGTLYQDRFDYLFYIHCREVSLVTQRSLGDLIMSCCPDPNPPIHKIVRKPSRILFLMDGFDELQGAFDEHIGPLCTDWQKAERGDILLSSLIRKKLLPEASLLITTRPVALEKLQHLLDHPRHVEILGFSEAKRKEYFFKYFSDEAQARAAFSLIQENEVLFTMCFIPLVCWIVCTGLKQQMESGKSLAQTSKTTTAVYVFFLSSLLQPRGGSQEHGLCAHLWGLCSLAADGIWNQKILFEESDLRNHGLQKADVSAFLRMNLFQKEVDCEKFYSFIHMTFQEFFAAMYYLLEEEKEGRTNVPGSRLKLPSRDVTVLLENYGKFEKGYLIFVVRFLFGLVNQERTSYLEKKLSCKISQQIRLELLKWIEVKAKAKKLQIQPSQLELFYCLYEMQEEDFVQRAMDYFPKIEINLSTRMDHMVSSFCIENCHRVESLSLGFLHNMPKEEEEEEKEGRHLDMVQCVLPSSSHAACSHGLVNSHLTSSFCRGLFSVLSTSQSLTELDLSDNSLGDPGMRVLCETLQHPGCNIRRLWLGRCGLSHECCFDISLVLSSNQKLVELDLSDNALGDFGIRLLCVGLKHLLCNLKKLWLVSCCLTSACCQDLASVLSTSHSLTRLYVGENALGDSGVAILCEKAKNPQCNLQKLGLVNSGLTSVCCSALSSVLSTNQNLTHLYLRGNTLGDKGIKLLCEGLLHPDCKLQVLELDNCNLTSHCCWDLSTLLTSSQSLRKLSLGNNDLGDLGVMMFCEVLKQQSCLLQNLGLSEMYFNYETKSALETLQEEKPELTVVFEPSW

Compound	EC50
N#CC1(C(=O)N2CCC[C@@H]2Cc2nc3c(N)nc4cc(-c5cc[nH]n5)ccc4c3[nH]2)CCCC1 [Example 83]	6.6 µM
CC(C)C(=O)N1CC[C@H](c2nc3c(N)nc4cc(-c5cc[nH]n5)ccc4c3[nH]2)C1 [Example 72]	3.1 µM
Nc1nc2cc(-c3cc[nH]n3)ccc2c2[nH]c(C[C@@H]3CCCN3C(=O)C3CCC3)nc12 [Example 89]	2.8 µM
CC(=O)N1CCC[C@H](c2nc3c(N)nc4cc(-c5cc[nH]n5)ccc4c3[nH]2)C1 [Example 24]	0.77 µM
CCn1c([C@H]2CCCN(C(=O)C3CC3(F)F)C2)nc2c(N)nc3cc(-c4cc[nH]n4)ccc3c21 (stereo partly shown) [Example 48]	0.08 µM
N#CC1(C(=O)N2CCC[C@H]2Cc2nc3c(N)nc4cc(-c5cc[nH]n5)ccc4c3[nH]2)CCCC1 [Example 95]	6.5 µM
CC(C)(C)C(=O)N1CCC[C@@H](c2nc3c(N)nc4cc(-c5cc[nH]n5)ccc4c3[nH]2)C1 [Example 61]	2.3 µM
CCCC(=O)N1CCC[C@H](c2nc3c(N)nc4cc(-c5cc[nH]n5)ccc4c3n2C(C)C)C1 [Example 52]	0.38 µM
Nc1nc2cc(-c3cc[nH]n3)ccc2c2[nH]c(C[C@@H]3CCCN3C(=O)C3(C(F)(F)F)CC3)nc12 [Example 93]	3.2 µM
(S)-1-(2-((4-amino-7-(1H-pyrazol-3-yl)-1H-imidazo[4,5-c]quinolin-2-yl)methyl)pyrrolidin-1-yl)propane-1-one [Example 18]	4.9 µM
CC(C)(C)OC(=O)N1CCC(c2nc3c(N)nc4cc(-c5cc[nH]n5)ccc4c3[nH]2)CC1 [Example 12, tert-Butyl 4-(4-amino-7-(1H-pyrazol-3-yl)-1H-imidazo[4,5-c]quinolin-2-yl)piperidine-1-carboxylate]	4.9 µM
CCCC(=O)N1CCC[C@H](c2nc3c(N)nc4cc(-c5cc[nH]n5)ccc4c3[nH]2)C1 [Example 27]	0.89 µM
COCCC(=O)N1CCC[C@H](c2nc3c(N)nc4cc(-c5cc[nH]n5)ccc4c3[nH]2)C1 [Example 35]	1.8 µM
Nc1nc2cc(-c3cc[nH]n3)ccc2c2[nH]c([C@H]3CCCN(C(=O)C4CC4)C3)nc12 [Example 29]	2.4 µM
CCCC(=O)N1CCC[C@@H]1Cc1nc2c(N)nc3cc(-c4cc[nH]n4)ccc3c2[nH]1 [Example 78]	5.8 µM
COCC(=O)N1CCC[C@H](c2nc3c(N)nc4cc(-c5cc[nH]n5)ccc4c3[nH]2)C1 [Example 34]	2.2 µM
C#CCC(=O)N1CCC[C@@H](c2nc3c(N)nc4cc(-c5cc[nH]n5)ccc4c3[nH]2)C1 [Example 65]	0.35 µM
CCn1c([C@H]2CCCN(C(=O)Cc3ccccc3)C2)nc2c(N)nc3cc(-c4cc[nH]n4)ccc3c21 [Example 50]	0.22 µM
Nc1nc2cc(-c3cc[nH]n3)ccc2c2[nH]c([C@@H]3CCCNC3)nc12 [Example 7, (R)-2-(Piperidin-3-yl)-7-(1H-pyrazol-3-yl)-1H-imidazo[4,5-c]quinolin-4-amine]	1.73 µM
CC(=O)N1CC[C@H](c2nc3c(N)nc4cc(-c5cc[nH]n5)ccc4c3[nH]2)C1 [Example 71]	4.9 µM
CCn1c([C@H]2CCCN(C(=O)CCOC)C2)nc2c(N)nc3cc(-c4cc[nH]n4)ccc3c21 [Example 47]	0.64 µM
CC(C)C(=O)N1CCC[C@@H]1Cc1nc2c(N)nc3cc(-c4cc[nH]n4)ccc3c2[nH]1 [Example 79]	1.6 µM
CC(C)n1c([C@H]2CCCN(C(=O)C3CC(F)(F)C3)C2)nc2c(N)nc3cc(-c4cc[nH]n4)ccc3c21 [Example 58]	0.33 µM
CCN1CCC(Cc2nc3c(N)nc4cc(-c5cc[nH]n5)ccc4c3[nH]2)C1 (stereo not shown) [Example 21, 2-((1-Ethylpyrrolidin-3-yl)methyl)-7-(1H-pyrazol-3-yl)-1H-imidazo[4,5-c]quinolin-4-amine]	0.88 µM
N#CC1(C(=O)N2CCC[C@@H]2Cc2nc3c(N)nc4cc(-c5cc[nH]n5)ccc4c3[nH]2)CCC1 [Example 82]	2.6 µM

More lines, in order of falling EC50, values ahead:

EC50	Compound
9.9 µM	COCC(=O)N1CCC[C@@H](c2nc3c(N)nc4cc(-c5cc[nH]n5)ccc4c3[nH]2)C1 [Example 64]
7 µM	CC(C)C(=O)N1CC[C@@H](c2nc3c(N)nc4cc(-c5cc[nH]n5)ccc4c3[nH]2)C1 [Example 11, (R)-1-(3-(4-Amino-7-(1H-pyrazol-3-yl)-1H-imidazo[4,5-c]quinolin-2-yl)pyrrolidin-1-yl)-2-methylpropan-1-one]
6.6 µM	CCC(=O)N1CC[C@H](c2nc3c(N)nc4cc(-c5cc[nH]n5)ccc4c3[nH]2)C1 [Example 9, (S)-1-(3-(4-Amino-7-(1H-pyrazol-3-yl)-1H-imidazo[4,5-c]quinolin-2-yl)pyrrolidin-1-yl)propan-1-one]
5.5 µM	Nc1nc2cc(-c3cc[nH]n3)ccc2c2[nH]c([C@H]3CCN(C(=O)c4ccccc4)C3)nc12 [Example 76]
3.7 µM	CC(C)(C)OC(=O)N1CCC[C@H]1Cc1nc2c(N)nc3cc(-c4cc[nH]n4)ccc3c2[nH]1 [Example 16, tert-Butyl (S)-2-((4-amino-7-(1H-pyrazol-3-yl)-1H-imidazo[4,5-c]quinolin-2-yl)methyl)pyyrolidine-1-carboxylate]
2.5 µM	Nc1nc2cc(-c3cc[nH]n3)ccc2c2[nH]c(C[C@H]3CCCN3C(=O)c3ccccc3)nc12 [Example 84]
2.5 µM	Nc1nc2cc(-c3cc[nH]n3)ccc2c2[nH]c([C@H]3CCCN(C(=O)C4CC(F)(F)C4)C3)nc12 [Example 32]
1.9 µM	Nc1nc2cc(-c3cc[nH]n3)ccc2c2[nH]c([C@@H]3CCCN(C(=O)C4CCC4)C3)nc12 [Example 8, (R)-(3-(4-Amino-7-(1H-pyrazol-3-yl)-1H-imidazo[4,5-c]quinolin-2-yl)piperidin-1-yl)(cyclobutyl)methanone]
1.8 µM	Nc1nc2cc(-c3cc[nH]n3)ccc2c2[nH]c([C@@H]3CCCN(C(=O)c4ccccc4)C3)nc12 [Example 67]
1.6 µM	COC(=O)N1CCC(Cc2nc3c(N)nc4cc(-c5cc[nH]n5)ccc4c3[nH]2)C1 (stereo not shown) [Example 19, Methyl 3-((4-amino-7-(1H-pyrazol-3-yl)-1H-imidazo[4,5-c]quinolin-2-yl)methyl)pyrrolidine-1-carboxylate]
1.2 µM	CC(C)C(=O)N1CCC[C@H](c2nc3c(N)nc4cc(-c5cc[nH]n5)ccc4c3[nH]2)C1 [Example 26]
1.2 µM	CCCC(=O)N1CCC[C@@H](c2nc3c(N)nc4cc(-c5cc[nH]n5)ccc4c3[nH]2)C1 [Example 62]
0.93 µM	CC(=O)N1CCC[C@H](c2nc3c(N)nc4cc(-c5cc[nH]n5)ccc4c3n2C(C)C)C1 [Example 51]
0.4 µM	CC(C)n1c([C@H]2CCCN(C(=O)Cc3ccccc3)C2)nc2c(N)nc3cc(-c4cc[nH]n4)ccc3c21 [Example 57]
0.33 µM	CCC(=O)N1CCC[C@H](c2nc3c(N)nc4cc(-c5cc[nH]n5)ccc4c3n2C(C)C)C1 [Example 5, (S)-1-(3-(4-Amino-1-isopropyl-7-(1H-pyrazol-3-yl)-1H-imidazo[4,5-c]quinolin-2-yl)piperidin-1-yl)propan-1-one]
0.3 µM	CC(C)n1c([C@H]2CCCN(C(=O)c3ccccc3)C2)nc2c(N)nc3cc(-c4cc[nH]n4)ccc3c21 [Example 56]
0.22 µM	CCCC(=O)N1CCC[C@H](c2nc3c(N)nc4cc(-c5cc[nH]n5)ccc4c3n2CC)C1 [Example 42]
0.11 µM	Nc1nc2cc(-c3cc[nH]n3)ccc2c2[nH]c(C[C@H]3CCCN3)nc12 [Example 14, (R)-7-(1H-pyrazol-3-yl)-2-(pyrrolidin-2-ylmethyl)-1H-imidazo[4,5-c]quinolin-4-amine]
